We go through 21 molecules from article PMC12056667 (Chemical Science, 2025).

Where two headings read alike, the source gives them in different places.

The target in assay [1] is Tet(X4) (Escherichia coli, UniProt A0A3T0V9Y5). Nature of the assay: FP competitive displacement of probe 6. The class given is binding. Particulars: 25 nM 6, 40 nM Tet(X4), 5 mM MgCl2, 1 μM FAD, 100 mM Tris pH 7.0, 0.01% Triton X-100. As to the method:
A 2× solution containing 80 nM Tet(X4), 2 μM FAD and 10 mM MgCl2 in the assay buffer was dispensed into the first 22 columns of a 384-well black, non-binding microtiter plate (Greiner Bio-One), 12.5 μL per well, using a microplate reagent dispenser. A solution of 2 μM FAD and 10 mM MgCl2 in the assay buffer was dispensed into the remaining columns to serve as a no enzyme control. A 3-fold, 10-point dilution series of substrates and inhibitors was made in DMSO in a V-bottom 96-well plate (Greiner Bio-One) with a highest concentration of 5 mM or 0.5 mM. Into one column was added DMSO with no inhibitor or substrate, to serve as a positive control. Tigecycline was included as a reference on every plate to ensure reproducibility. 0.5 μL of each dilution was transferred in quadruplicate to the 384-well plate containing enzyme solution using a CyBi-Well liquid-handling robot (CyBio). A solution of 50 nM 6 in the assay buffer was then dispensed, with 12.5 μL per well. The plate was briefly centrifuged (1000 rpm), then incubated at ambient temperature for 30 min prior to measuring the FP. Data points were normalised between the positive and negative controls. Normalised % response was plotted as a function of log10([Inhibitor]), and the IC50^app was determined by fitting the data to the equation: Y = Bottom + (top-bottom)/(1 + 10^Log(IC50) − X) × HillSlope in GraphPad Prism 9.4.1, where Y = % response and X = log10([Inhibitor]). Wells with unusual fluorescence intensities were manually identified and removed from the analysis. […]

The test system of assay [2] is Acinetobacter spp. NT3-1 – tet(X3). Nature of the assay: microbe, parasite or virus in culture. In kind it is cell-based. As to the method:
(§1) MIC tests and checkerboard assays were performed in U-bottom, 96-well microtiter plates using a modified broth microdilution protocol following CLSI guidelines. Cation-adjusted Mueller-Hinton Broth (CAMHB) was prepared fresh on the day of testing.[74] In brief, assays were set up in a total volume of 100 μL per well and titrations comprised seven 2-fold dilutions of inhibitors and ten 2-fold dilutions of tigecycline in CAMHB. Bacterial colonies were selected from an overnight culture on MHA plates (supplemented with 0.2%w/vL-arabinose for E. coli TOP10 containing pBAD-TOPO-Tet(X4)) and were suspended in 0.9% saline solution to achieve a 0.5 McFarland standard. A 100 μL aliquot of this suspension was then diluted into 9.9 mL of CAMHB to yield approximately 1.5 × 10^6 cfu mL^−1. 50 μL of the suspension was then added to each well of a microtiter plates. Plates were incubated at 37 °C for 18 h. At least 2 replicates were conducted for each combination. E. coli TOP10 + pBAD-TOPO-Tet(X4) cells were grown in the absence and presence of 0.2%w/vL-arabinose. Analysis of the MIC and checkerboard results were carried out by visual inspection of growth, with and without resazurin dye, an oxidation–reduction indicator.[75] As a measure of synergy, fractional inhibitory concentration index (FICI) was calculated as FICA + FICB, where FICA and FICB are the MICcombination/MICalone for each agent, respectively.[76] Results were interpreted as follows: synergistic (<0.5), indifferent (1.0–4.0) or antagonistic (>4.0).[64] In cases where the MIC exceeded or was below the measured range, the borderline value was taken to calculate the FIC index.

Assay [3] concerns Salmonella enterica T-2a – tet(X4). Put plainly: microbe, parasite or virus in culture. In kind it is cell-based. As to the method: as §1
Assay [4] concerns Escherichia coli T-24a – tet(X4). Put plainly: microbe, parasite or virus in culture. In kind it is cell-based. As to the method:
as §1, with “In brief, assays were set up in a total volume of 100 μL per well and titrations comprised seven 2-fold dilutions of inhibitors and ten 2-fold dilutions of tigecycline in CAMHB.” left out

In assay [5] the test system is Proteus penneri NT6-2 – tet(X6). Put plainly: microbe, parasite or virus in culture. The class given is cell-based. As to the method:
as §1, with “In brief, assays were set up in a total volume of 100 μL per well and titrations comprised seven 2-fold dilutions of inhibitors and ten 2-fold dilutions of tigecycline in CAMHB.” left out

In assay [6] the test system is Acinetobacter baumannii NT5-1 – tet(X5). Put plainly: microbe, parasite or virus in culture. The class given is cell-based. As to the method:
as §1, with “In brief, assays were set up in a total volume of 100 μL per well and titrations comprised seven 2-fold dilutions of inhibitors and ten 2-fold dilutions of tigecycline in CAMHB.” left out

Assay [7] has as its system E. coli TOP10 containing plasmid pBAD-TOPO-Tet(X4). Put plainly: Broth microdilution MIC and checkerboard assay. In kind it is cell-based, Escherichia coli. Particulars: alone; without L-arabinose induction.
Source text: Tet(X4) was sub-cloned from the Tet(X4) pET28b-(+) expression vector via TOPO cloning. The insert was amplified using the taq polymerase with the forward primer 5′- […]-3′ and the reverse primer 5′- […]-3’. Following PCR purification (Thermo Fisher Scientific), the A-tailed PCR product was ligated into the pBAD-TOPO vector using a TOPO cloning kit (Invitrogen) according to the manufacturer's protocol. Following amplification in E. coli NEB5α cells (NEBiolabs), the fidelity of the insert was confirmed by Sanger sequencing (Eurofins). For microbiological experiments, E. coli TOP10 cells were used as the recipient strain. Cells were plated on Mueller-Hinton agar (MHA) plates containing ampicillin at 100 μg mL^−1. The introduction of pBAD-TOPO-Tet(X4) was confirmed by colony PCR. Strains were stored in a freezer at −80 °C in cryopreservation beads.
as §1, with “In brief, assays were set up in a total volume of 100 μL per well and titrations comprised seven 2-fold dilutions of inhibitors and ten 2-fold dilutions of tigecycline in CAMHB.” left out

Where [8] appears, read: IC50app, Tet(X4) (Polarization).
The mark [9] stands for this setting: inhibitor in combination with tigecycline, lowest FICI.
Where [10] appears, read: tigecycline in combination with the inhibitor, lowest FICI.

In turn, `CON(C)Cc1ccc(O)c2c1C[C@H]1C[C@H]3[C@H](N(C)C)C(O)=C(C(N)=O)C(=O)[C@@]3(O)C(O)=C1C2=O` [Sarecycline] displayed an IC50 in assay [1] (IC50app, FP assay) of 31.5 ± 10 nM.

The molecule `CN(C)[C@@H]1C(O)=C(C(N)=O)C(=O)[C@@]2(O)C(O)=C3C(=O)c4c(O)cccc4[C@@](C)(O)[C@H]3[C@H](O)[C@@H]12` [Oxytetracycline] returned an IC50 in assay [1] (IC50app, FP assay) of 4430 ± 260 nM.

`CN(C)[C@@H]1C(O)=C(C(N)=O)C(=O)[C@@]2(O)C(O)=C3C(=O)c4c(O)ccc(Cl)c4[C@@H](O)[C@H]3C[C@@H]12` [Demeclocycline] displayed an IC50 in assay [1] (IC50app, FP assay) of 29 ± 4.6 nM.

`Nc1nc2c(c(=O)[nH]1)N(C=O)C(CNc1ccc(C(=O)N[C@@H](CCC(=O)O)C(=O)O)cc1)CN2` (stereo partly shown) [Calcium folinate]: in assay [1] (setting [8]), the IC50 is more than 100000 nM.

Molecule `NC(=O)c1ncn([C@@H]2O[C@H](CO)[C@@H](O)[C@H]2O)c1O` [Mizoribine] registered an IC50 in assay [1] (setting [8]) of more than 100000 nM.

Regarding `NCCS` [Cysteamine], the IC50 in assay [1] (read-out: IC50app, Tet(X4) (Polarization)) is more than 100000 nM.

`COc1ccnc(C[S+]([O-])c2nc3cc(-n4cccc4)ccc3[nH]2)c1C` (stereo not shown) [Ilaprazole]: the IC50 in assay [1] (setting [8]) was more than 100000 nM.

Take `C[C@]12CCC(=O)C=C1[C@@H]1C[C@@H]1[C@H]1[C@@H]3[C@@H]4C[C@@H]4[C@@]4(CCC(=O)O4)[C@@]3(C)CC[C@@H]12` [Drosperinone]: the “Tet(X) inhibitor MIC” value in assay [2] (alone, Acinetobacter spp. NT3-1) was 128 µg/mL; in assay [4] (alone, E. coli T-24a), 256 µg/mL; in assay [5] (alone, P. penneri NT6-2) it was more than 128 µg/mL; in assay [6] (alone, A. baumannii NT5-1), more than 128 µg/mL. For the same molecule, the “Combination (Antibiotic/Inhibitor) MICs: inhibitor” value in assay [2] (setting [9]), in assay [5] (setting [9]) and in assay [6] (setting [9]) was 128 µg/mL in each case. In addition, the “Combination (Antibiotic/Inhibitor) MICs: antibiotic” value in assay [2] (setting [10]) was 4 µg/mL; in assay [3] (setting [10]), 16 µg/mL; in assay [4] (setting [10]) it was 8 µg/mL; in assay [5] (setting [10]), 8 µg/mL; in assay [6] (setting [10]) it was 4 µg/mL. For the same molecule, the FICI was found to be 2 in assay [2] (with tigecycline); 1.5 in assay [3] (with tigecycline); 1 in assay [4] (with tigecycline); 2 in assay [5] (with tigecycline); 1.5 in assay [6] (with tigecycline). For the same molecule, the Outcome entry in assay [2] (with tigecycline), in assay [3] (with tigecycline), in assay [4] (with tigecycline), in assay [5] (with tigecycline) and in assay [6] (with tigecycline) was “indifferent (indifferent (0.5-4.0))” each time.

With `CCC1(c2cnc[nH]2)Cc2ccccc2C1` [Atipamezole], the IC50 in assay [1] (setting [8]) was more than 100000 nM.

`CN(C)c1cc(CNCC(C)(C)C)c(O)c2c1C[C@H]1C[C@H]3[C@H](N(C)C)C(O)=C(C(N)=O)C(=O)[C@@]3(O)C(O)=C1C2=O` [Omadacycline] showed an IC50 in assay [1] (IC50app, FP assay) of 24.3 ± 4 nM.

As for `CN(C)[C@@H]1C(O)=C(C(N)=O)C(=O)[C@@]2(O)C(O)=C3C(=O)c4c(O)c(NC(=O)CN5CCCC5)cc(F)c4C[C@H]3C[C@@H]12` [Eravacycline], in assay [1] (IC50app, FP assay), the IC50 is 13.7 ± 1.6 nM.

Regarding `CCN(CC)C(=S)SSC(=S)N(CC)CC` [Disulfiram], the IC50 in assay [1] (setting [8]) was more than 100000 nM.

Regarding `CN(C)[C@@H]1C(O)=C(C(N)=O)C(=O)[C@@]2(O)C(O)=C3C(=O)c4c(O)cccc4[C@@](C)(O)[C@H]3C[C@@H]12` [Tetracycline], the “Antibiotic MIC” value in assay [7] was 4 µg/mL. The IC50 in assay [1] (IC50app, FP assay) was 69.6 ± 8.8 nM.

Take `C[C@@H](Oc1cc(-c2cnn(C3CCNCC3)c2)cnc1N)c1c(Cl)ccc(F)c1Cl` [Crizotinib]: the IC50 in assay [1] (setting [8]) is more than 100000 nM.

With `Nc1ccc2cc3ccc(N)cc3nc2c1` [Proflavine], the IC50 in assay [1] (setting [8]) is more than 100000 nM.

For `CN(C)c1ccc(O)c2c1C[C@H]1C[C@H]3[C@H](N(C)C)C(O)=C(C(N)=O)C(=O)[C@@]3(O)C(O)=C1C2=O` [Minocycline], in assay [1] (IC50app, FP assay), the IC50 came out at 51.5 ± 3.6 nM.

The molecule `N=C(N)c1ccc(/N=N/Nc2ccc(C(=N)N)cc2)cc1` [Diminazene] displayed an IC50 in assay [1] (setting [8]) of more than 100000 nM.

In the case of `C=C1c2cccc(O)c2C(=O)C2=C(O)[C@]3(O)C(=O)C(C(N)=O)=C(O)[C@@H](N(C)C)[C@@H]3[C@@H](O)[C@H]12` [Methacycline], the IC50 in assay [1] (IC50app, FP assay) turned out to be 311 ± 36 nM.

In assay [1] (IC50app, FP assay), `CN(C)[C@@H]1C(O)=C(C(N)=O)C(=O)[C@@]2(O)C(O)=C3C(=O)c4c(O)ccc(Cl)c4[C@@](C)(O)[C@H]3C[C@@H]12` [Chlortetracycline] returned an IC50 of 39 ± 9.6 nM.

Consider `NCCc1ccc(O)c(O)c1` [Dopamine], for which the IC50 in assay [1] (setting [8]) is more than 100000 nM.

Turning to `CN(C)[C@@H]1C(O)=C(C(N)=O)C(=O)[C@@]2(O)C(O)=C3C(=O)c4c(O)cccc4C[C@H]3C[C@@H]12` [Sancycline], the IC50 in assay [1] (IC50app, FP assay) is 47 ± 7.1 nM.
